In patent US7186714B2, “Imidazo[1,2-α]pyridine derivatives for the prophylaxis and treatment of herpes viral infections” (SmithKline Beecham Corporation, priority 2001, dated 2007) one finds IC50 data, which are given here for 2 compounds.

Each structure is given as a SMILES string.

The test system of the assay is HSV-1. As to the kind of experiment: HSV infection of Vero 76 cells, viral DNA detected by hybridization capture with chemiluminescence. The assay is classed as cell-based. Particulars: Human alphaherpesvirus 1; HSV-1 in Vero 76 cells, MOI=0.001, incubated 40–48 hours with test compound. Here is the method:
Vero 76 cells were maintained in MEM with Earle's salts, L-glutamine, 8% FBS (Hyclone, A-1111-L) and 100 units/mL Penicillin-100 μg/mL Streptomycin. For assay conditions, FBS was reduced to 2%. Cells are seeded into 96-well tissue culture plates at a density of 5×10^4 cells/well after being incubated for 45 min at 37° C. in the presence of HSV-1 or HSV-2 (MOI=0.001). Test compounds are added to the wells and the plates are incubated at 37° C. for 40–48 hours. Cell lysates are prepared as follows: media was removed and replaced with 150 μL/well 0.2 N NaOH with 1% Igepal CA 630 or NP-40. Plates were incubated up to 14 days at room temperature in a humidified chamber to prevent evaporation.
For the detection probe, a gel-purified, digoxigenin-labeled, 710-bp PCR fragment of the HSV UL-15 sequence was utilized. PCR conditions included 0.5 μM primers, 180 μM dTTP, 20 μM dUTP-digoxigenin (Boehringer Mannheim 1558706), 200 μM each of dATP, dCTP, and dGTP, 1×PCR Buffer II (Perkin Elmer), 2.5 mM MgCl2, 0.025 units/μL of AmpliTaq Gold polymerase (Perkin Elmer), and 5 ng of gel-purified HSV DNA per 100 μL Extension conditions were 10 min at 95° C., followed by 30 cycles of 95° C. for 1 min, 55° C. for 30 sec, and 72° C. for 2 min. The amplification was completed with a 10-min incubation at 72° C. Primers were selected to amplify a 728 bp probe spanning a section of the HSV1 UL15 open reading frame (nucleotides 249–977). Single-stranded transcripts were purified with Promega M13 Wizard kits. The final product was mixed 1:1 with a mixture of 6 M GuSCN, 100 mM EDTA and 200 μg/mL herring sperm DNA and stored at 4° C.
The capture DNA plasmid (HSV UL13 region in pUC) was linearized by cutting with XbaI, denatured for 15 min at 95° C. and diluted immediately into Reacti-Bind DNA Coating Solution (Pierce, 17250, diluted 1:1 with TE buffer, pH 8) at 1 ng/μL 75 μL/well were added to Corning (#3922 or 9690) white 96-well plates and incubated at room temperature for at least 4 hrs before washing twice with 300 μL/well 0.2×SSC/0.05% Tween-20 (SSC/T buffer). The plates were then incubated overnight at room temperature with 150 μL/well 0.2 N NaOH, 1% IGEPAL and 10 μg/mL herring sperm DNA.
Twenty-seven (27) μL of cell lysate was combined with 45 μL of hybridization solution (final concentration: 3M GuSCN, 50 mM EDTA, 100 μg/ml salmon sperm DNA, 5×Denhardt's solution, 0.25×APE, and 5 ng of the digoxigenin-labeled detection probe). APE is 1.5 M NH4-acetate, 0.15 M ammonium phosphate monobasic, and 5 mM EDTA adjusted to pH 6.0. Mineral oil (50 μL) was added to prevent evaporation. The hybridization plates were incubated at 95° C. for 10 minutes to denature the DNA, then incubated at 42° C. overnight. The wells were washed 6× with 300 μL/well SSC/T buffer then incubated with 75 μL/well anti-digoxigenin-HRP-conjugated antibody (Boehringer Mannheim 1207733, 1:5000 in TE) for 30 min at room temperature. The wells were washed 6× with 300 μL/well with PBS/0.05% Tween-20 before 75 μL/well SuperSignal LBA substrate (Pierce) was added. The plates were incubated at room temperature for 30 minutes and chemiluminescence was measured in a Wallac Victor reader.

What is called IC50 is the concentration that gives 50% inhibition. Read a high IC50 as a need for much substance. The compound `Fc1ccc(-c2nc3c(NC4CCCC4)cc(Br)cn3c2-c2ccnc(NC3CCCC3)n2)cc1` [Example 41, N-{4-[6-Bromo-8-(cyclopentylamino)-2-(4-fluorophenyl)imidazo[1,2-a]pyridin-3-yl]-2-pyrimidinyl}-N-cyclopentylamine] came in with a concentration for half-maximal inhibition (IC50) of 0.18 µM. In the case of `Oc1ccc(-c2nc3c(NC4CCCC4)cccn3c2-c2ccnc(NC3CCCC3)n2)cc1` [Example 11, 4-{8-(Cyclopentylamino)-3-[2-(cyclopentylamino)-4-pyrimidinyl]imidazo[1,2-α]pyridin-2-yl}phenol], the IC50 amounted to 3.3 µM.
